Assay results from patent US8802661B2, “C-28 amides of modified C-3 betulinic acid derivatives as HIV maturation inhibitors” (priority 2010, dated 2014).
Where a name gives a salt, the structure may show the parent alone. Read-outs that look alike come from different tables or passages of the source.

Test system: recombinant NL4-3 virus (Renilla luciferase in nef, Gag P373S)
Test: HIV Cell Culture Assay (luciferase reporter virus in MT-2 cells)
Format: cell-based
In short: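 MT-2 cells infected 4–5 days with NL4-3 carrying Renilla luciferase in nef and Gag P373S, with serial dilutions of inhibitor present. Antiviral activity quantified by luciferase activity, using Dual Luciferase reagents premixed with lysis buffer and read immediately.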

| SMILES | EC50 (NL43, read-out: EC50 Group) | EC50 (NL43) |
| --- | --- | --- |
| C=C(C)[C@@H]1CC[C@]2(C(=O)NCCN3CCS(=O)(=O)CC3)CC[C@]3(C)[C@H](CC[C@@H]4[C@@]5(C)CC=C(c6cc(F)c(C(=O)O)c(F)c6)C(C)(C)[C@@H]5CC[C@]43C)[C@@H]12 [Example 121, 4-((1R,3aS,5aR,5bR,7aR,11aS,11bR,13aR,13bR)-3a-((2-(1,1-dioxido-4-thiomorpholinyl)ethyl)carbamoyl)-1-isopropenyl-5a,5b,8,8,11a-pentamethyl-2,3,3a,4,5,5a,5b,6,7,7a,8,11,11a,11b,12,13,13a,13b-octadecahydro-1H-cyclopenta[a]chrysen-9-yl)-2,6-difluorobenzoic acid] | < 100 nM |  |
| C=C(C)[C@@H]1CC[C@]2(C(=O)NCCN(C)C)CC[C@]3(C)[C@H](CC[C@@H]4[C@@]5(C)CC=C(c6cc(F)c(C(=O)O)c(F)c6)C(C)(C)[C@@H]5CC[C@]43C)[C@@H]12 [Example 122, 4-((1R,3aS,5aR,5bR,7aR,11aS,11bR,13aR,13bR)-3a-(2-(dimethylamino)ethylcarbamoyl)-5a,5b,8,8,11a-pentamethyl-1-(prop-1-en-2-yl)-2,3,3a,4,5,5a,5b,6,7,7a,8,11,11a,11b,12,13,13a,13b-octadecahydro-1H-cyclopenta[a]chrysen-9-yl)-2,6-difluorobenzoic acid] | < 100 nM |  |
| C=C(C)[C@@H]1CC[C@]2(C(=O)NCCCN3CCS(=O)(=O)CC3)CC[C@]3(C)[C@H](CC[C@@H]4[C@@]5(C)CC=C(c6cc(F)c(C(=O)O)c(F)c6)C(C)(C)[C@@H]5CC[C@]43C)[C@@H]12 [Example 123, 4-((1R,3aS,5aR,5bR,7aR,11aS,11bR,13aR,13bR)-3a-((3-(1,1-dioxido-4-thiomorpholinyl)propyl)carbamoyl)-1-isopropenyl-5a,5b,8,8,11a-pentamethyl-2,3,3a,4,5,5a,5b,6,7,7a,8,11,11a,11b,12,13,13a,13b-octadecahydro-1H-cyclopenta[a]chrysen-9-yl)-2,6-difluorobenzoic acid] | < 100 nM |  |
| CC(C)[C@@H]1CC[C@]2(C(=O)NCCC(=O)O)CC[C@]3(C)[C@H](CC[C@@H]4[C@@]5(C)CC[C@H](c6ccc(C(=O)O)cc6)C(C)(C)[C@@H]5CC[C@]43C)[C@@H]12 [Example 124, 4-((1S,3aS,5aR,5bR,7aS,9S,11aS,11bR,13aR,13bR)-3a-(2-carboxyethylcarbamoyl)-1-isopropyl-5a,5b,8,8,11a-pentamethylicosahydro-1H-cyclopenta[a]chrysen-9-yl)benzoic acid] | < 100 nM |  |
| C=C(C)[C@@H]1CC[C@]2(C(=O)NCCN)CC[C@]3(C)[C@H](CC[C@@H]4[C@@]5(C)CC=C(c6ccc(C(=O)O)cc6)C(C)(C)[C@@H]5CC[C@]43C)[C@@H]12 [Example 125, 4-((1R,3aS,5aR,5bR,7aR,11aS,11bR,13aR,13bR)-3a-(2-aminoethylcarbamoyl)-5a,5b,8,8,11a-pentamethyl-1-(prop-1-en-2-yl)-2,3,3a,4,5,5a,5b,6,7,7a,8,11,11a,11b,12,13,13a,13b-octadecahydro-1H-cyclopenta[a]chrysen-9-yl)benzoic acid] | < 100 nM |  |
| C=C(C)[C@@H]1CC[C@]2(C(=O)NCc3ccoc3)CC[C@]3(C)[C@H](CC[C@@H]4[C@@]5(C)CC=C(c6ccc(C(=O)O)cc6)C(C)(C)[C@@H]5CC[C@]43C)[C@@H]12 [Example 126, 4-((1R,3aS,5aR,5bR,7aR,11aS,11bR,13aR,13bR)-3a-(furan-3-ylmethylcarbamoyl)-5a,5b,8,8,11a-pentamethyl-1-(prop-1-en-2-yl)-2,3,3a,4,5,5a,5b,6,7,7a,8,11,11a,11b,12,13,13a,13b-octadecahydro-1H-cyclopenta[a]chrysen-9-yl)benzoic acid] | < 100 nM |  |
| C=C(C)[C@@H]1CC[C@]2(C(=O)NCCC(=O)N3CCCC3C(=O)O)CC[C@]3(C)[C@H](CC[C@@H]4[C@@]5(C)CC=C(c6ccc(C(=O)O)cc6)C(C)(C)[C@@H]5CC[C@]43C)[C@@H]12 (stereo partly drawn) [Example 127, 1-(3-((1R,3aS,5aR,5bR,7aR,11aS,11bR,13aR,13bR)-9-(4-carboxyphenyl)-5a,5b,8,8,11a-pentamethyl-1-(prop-1-en-2-yl)-2,3,3a,4,5,5a,5b,6,7,7a,8,11,11a,11b,12,13,13a,13b-octadecahydro-1H-cyclopenta[a]chrysene-3a-carboxamido)propanoyl)pyrrolidine-2-carboxylic acid] | < 100 nM |  |
| C=C(C)[C@@H]1CC[C@]2(C(=O)N3CCCC3C(=O)O)CC[C@]3(C)[C@H](CC[C@@H]4[C@@]5(C)CC=C(c6ccc(C(=O)O)cc6)C(C)(C)[C@@H]5CC[C@]43C)[C@@H]12 (stereo partly drawn) [Example 128, 1-((1R,3aS,5aR,5bR,7aR,11aS,11bR,13aR,13bR)-9-(4-carboxyphenyl)-5a,5b,8,8,11a-pentamethyl-1-(prop-1-en-2-yl)-2,3,3a,4,5,5a,5b,6,7,7a,8,11,11a,11b,12,13,13a,13b-octadecahydro-1H-cyclopenta[a]chrysene-3a-carbonyl)pyrrolidine-2-carboxylic acid] | < 100 nM |  |
| C=C(C)[C@@H]1CC[C@]2(C(=O)NCCC(C)C)CC[C@]3(C)[C@H](CC[C@@H]4[C@@]5(C)CC=C(c6ccc(C(=O)O)cc6)C(C)(C)[C@@H]5CC[C@]43C)[C@@H]12 [Example 129, 4-((1R,3aS,5aR,5bR,7aR,11aS,11bR,13aR,13bR)-3a-(isopentylcarbamoyl)-5a,5b,8,8,11a-pentamethyl-1-(prop-1-en-2-yl)-2,3,3a,4,5,5a,5b,6,7,7a,8,11,11a,11b,12,13,13a,13b-octadecahydro-1H-cyclopenta[a]chrysen-9-yl)benzoic acid] | < 100 nM |  |
| C=C(C)[C@@H]1CC[C@]2(C(=O)NCCN3CCS(=O)(=O)CC3)CC[C@]3(C)[C@H](CC[C@@H]4[C@@]5(C)CC=C(c6ccc(B(O)O)cc6)C(C)(C)[C@@H]5CC[C@]43C)[C@@H]12 [Example 130, (4-((1R,3aS,5aR,5bR,7aR,11aS,11bR,13aR,13bR)-3a-((2-(1,1-dioxidothiomorpholino)ethyl)carbamoyl)-5a,5b,8,8,11a-pentamethyl-1-(prop-1-en-2-yl)-2,3,3a,4,5,5a,5b,6,7,7a,8,11,11a,11b,12,13,13a,13b-octadecahydro-1H-cyclopenta[a]chrysen-9-yl)phenyl)boronic acid, TFA] |  | 13.4 nM |
| C[C@H]1[C@H](C)CC[C@]2(C(=O)NCCN(C)C)CC[C@]3(C)C(=CC[C@@H]4[C@@]5(C)CC=C(c6ccc(C(=O)O)cc6)C(C)(C)[C@@H]5CC[C@]43C)[C@H]12 [Example A1, 4-((4aR,6aR,6bS,8aS,11R,12S,12aS,14aR,14bS)-8a-(2-(dimethylamino)ethylcarbamoyl)-4,4,6a,6b,11,12,14b-heptamethyl-1,4,4a,5,6,6a,6b,7,8,8a,9,10,11,12,12a,14,14a,14b-octadecahydropicen-3-yl)benzoic acid] | < 100 nM |  |
| C[C@H]1[C@H](C)CC[C@]2(C(=O)NCCCN3CCS(=O)(=O)CC3)CC[C@]3(C)C(=CC[C@@H]4[C@@]5(C)CC=C(c6ccc(C(=O)O)cc6)C(C)(C)[C@@H]5CC[C@]43C)[C@H]12 [Example A2, 4-((4aR,6aR,6bS,8aS,11R,12S,12aS,14aR,14bS)-8a-((3-(1,1-dioxido-4-thiomorpholinyl)propyl)carbamoyl)-4,4,6a,6b,11,12,14b-heptamethyl-1,4,4a,5,6,6a,6b,7,8,8a,9,10,11,12,12a,14,14a,14b-octadecahydro-3-picenyl)benzoic acid] | < 100 nM |  |
| CN(C)CCNC(=O)[C@]12CCC(C)(C)C[C@H]1C1=CC[C@@H]3[C@@]4(C)CC=C(c5ccc(C(=O)O)cc5)C(C)(C)[C@@H]4CC[C@@]3(C)[C@]1(C)CC2 [Example B1, 4-((4aR,6aR,6bS,8aS,12aS,14aR,14bS)-8a-(2-(dimethylamino)ethylcarbamoyl)-4,4,6a,6b,11,11,14b-heptamethyl-1,4,4a,5,6,6a,6b,7,8,8a,9,10,11,12,12a,14,14a,14b-octadecahydropicen-3-yl)benzoic acid] | < 100 nM |  |
| CC1(C)CC[C@]2(C(=O)NCCCN3CCS(=O)(=O)CC3)CC[C@]3(C)C(=CC[C@@H]4[C@@]5(C)CC=C(c6ccc(C(=O)O)cc6)C(C)(C)[C@@H]5CC[C@]43C)[C@@H]2C1 [Example B2, 4-((4aR,6aR,6bS,8aS,12aS,14aR,14bS)-8a-((3-(1,1-dioxido-4-thiomorpholinyl)propyl)carbamoyl)-4,4,6a,6b,11,11,14b-heptamethyl-1,4,4a,5,6,6a,6b,7,8,8a,9,10,11,12,12a,14,14a,14b-octadecahydro-3-picenyl)benzoic acid] | < 100 nM |  |
